In patent US9066880B2, “Use of dihydrodehydrodiisoeugenol and preparations comprising dihydrodehydrodiisoeugenol” (SYMRISE AG, priority 2010, dated 2015):

Columns and labels:
[1] = tested on: fatty acid binding protein 4 (FABP4); test: Real Time-PCR, expression of differentiation marker FABP4 in 3T3-L1-cells; assay type: cell-based, mouse; conditions: fold induction compared to hormone mix stimulation (set equal to one)
Method: (§1) 3T3-L1-cells (mouse embryonic fibroblast-like preadipocytes cell line) were propagated in Dulbecco's Modified Eagle Medium (DMEM), enriched with 10% newborn calf serum (CS) at 37° C. and 5% CO2 and seeded in 12-well plates for gene expression analysis. After reaching confluence at day −2, the differentiation was induced by changing medium at day 0 to DMEM with 10% fetal calf serum (FCS) containing a hormone mix (HM) of 1 μg/ml insulin, 0.25 μM dexamethasone (Dex) and 0.5 mM 3-isobutyl-1-methylxanthine (IBMX). Compounds of interest such as compound of formula (I) are applied from day −2 (confluence of the cells) until day 2 using various concentrations. Medium is renewed every other day. At day 2, medium consisting of DMEM, 10% FCS and 1 μg/ml insulin is added. From day 4 on, only DMEM containing 10% FCS is used for further cultivation of cells. […]
(§2) Total RNA from cell culture samples was isolated using RNeasy Total RNA Kits (Qiagen, Hilden; Germany). The RNA concentration and purity was determined photometrically using 260/280 ratios (Biophotometer, Eppendorf, Hamburg, Germany). […] At least three independent experiments were performed with 2 determinations each and the mean value of these was calculated. […] Each sample was analyzed in duplicate employing the universal protocol over 46 cycles. […]

[2] = tested on: peroxisome proliferator-activated receptor γ2 (PPARγ2); test: Real Time-PCR, expression of differentiation marker PPARγ2 in 3T3-L1-cells; assay type: cell-based, mouse; conditions: fold induction compared to hormone mix stimulation (set equal to one)
Method: as §1, §2

[3] = ABTS-Assay (in vitro), anti-oxidative capacity; conditions: photometric at 734 nm, average of at least 2 independent experiments
Method: With the help of the ABTS-assay the anti-oxidative capacity of test substances is measured. 2,2′-azino bis-(3-ethylbenzothiazoline 6-sulfonic acid) (ABTS) is transformed by potassium persulfate into the blue-green radical cation ABTS•+. Through the addition of antioxidants (test substance) the radical cations are reduced and discoloration takes place, which is determined photometrically at 734 nm.
[formula] A test substance=absorption of the wells with test substance • A control=absorption of the wells without test substance
From the inhibition of the radical formation [%] in a series of dilutions of tested samples the IC50 is calculated. This is the concentration at which the radical formation is inhibited by 50%.

## CCCc1cc(OC)c2c(c1)C(C)C(c1ccc(O)c(OC)c1)O2 (centres unmarked) [compound of formula (I), 2-Methoxy-4-(7-methoxy-3-methyl-5-propyl-2,3-dihydro-benzofuran-2-yl)-phenol]
[1]; 1 μM
  Stimulation of expression at day 2, FABP4: 2.1
[1]; 10 μM
  Stimulation of expression at day 2, FABP4: 3.3
[2]; 1 μM
  Stimulation of expression at day 2, PPARγ2: 1.0
[2]; 10 μM
  Stimulation of expression at day 2, PPARγ2: 1.5
[3]
  IC50 calculated from the inhibition of radical formation: 11.0 ppm
